Reference: patent US20230310428A1, “EGFR INHIBITOR AND PREPARATION METHOD AND USE THEREOF” (HONGYUN BIOTECH CO., LTD., priority 2020, published 2023)
Like-named read-outs stand apart in the source and are kept apart here.

How the values were obtained:
Test in all cases: Growth inhibitory activity of compounds on BaF3 cell lines stably transfected with kinase (MTS, 48 h)
Type in all cases: cell-based
[1] = target: T1, various mutants of kinase EGFR (BaF3 cell lines stably transfected with kinase) (Homo sapiens, UniProt P00533, T790M/C797S, form not given)
T1 construct: other: BaF3 cells stably transfected with EGFR Δ19Del/T790M/C797S; MTS, 48; other: BaF3 cell line stably transfected with EGFR Δ19Del/T790M/C7
Procedure, shortened: (§1)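 Transfected cells received compound (max 10 µM, 8 concentrations) for 48 h; MTS readout at 490 nm yielded IC50.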

[2] = target: T2, various mutants of kinase EGFR (BaF3 cell lines stably transfected with kinase) (Homo sapiens, UniProt P00533, T790M, form not given)
T2 construct: other: BaF3 cells stably transfected with EGFR Δ19Del/T790M; MTS, 48 h; other: BaF3 cell line stably transfected with EGFR Δ19Del/T790M; MTS, 48
Procedure, shortened: as §1

[3] = target: T3, various mutants of kinase EGFR (BaF3 cell lines stably transfected with kinase) (Homo sapiens, UniProt P00533, L858R)
T3 construct: expressed in transfected cells; host or cells: BaF3
Procedure, shortened: as §1

[4] = target: T4, various mutants of kinase EGFR (BaF3 cell lines stably transfected with kinase) (Homo sapiens, UniProt P00533, L858R/T790M)
T4 construct: expressed in transfected cells; host or cells: BaF3
Procedure, shortened: as §1

[5] = target: T5, various mutants of kinase EGFR (BaF3 cell lines stably transfected with kinase) (Homo sapiens, UniProt P00533, C797S/L858R/T790M)
T5 construct: expressed in transfected cells; host or cells: BaF3
Procedure, shortened: as §1

[6] = target: T6, various mutants of kinase EGFR (BaF3 cell lines stably transfected with kinase) (Homo sapiens, UniProt P00533)
T6 construct: other: BaF3 cells stably transfected with EGFR Δ19Del; MTS, 48 h; other: BaF3 cell line stably transfected with EGFR Δ19Del
Procedure, shortened: as §1

[7] = BaF3 cells stably transfected with EGFR Δ19Del/T790M/C797S, read-out: IC50, growth inhibition, Δ19Del/T790M/C797S
[8] = BaF3 cells stably transfected with EGFR Δ19Del/T790M, read-out: IC50, growth inhibition, Δ19Del/T790M
[9] = BaF3 cells stably transfected with EGFR L858R, read-out: IC50, growth inhibition, L858R
[10] = BaF3 cells stably transfected with EGFR L858R/T790M, read-out: IC50, growth inhibition, L858R/T790M
[11] = BaF3 cells stably transfected with EGFR L858R/T790M/C797S, read-out: IC50, growth inhibition, L858R/T790M/C797S
[12] = BaF3 cells stably transfected with EGFR Δ19Del, read-out: IC50, growth inhibition, Δ19Del
[13] = BaF3 cell line stably transfected with EGFR Δ19Del/T790M/C797S, read-out: Δ19Del/T790M/ C797S growth inhibitory activity IC50
[14] = BaF3 cell line stably transfected with EGFR Δ19Del/T790M, read-out: Δ19Del/ T790M growth inhibitory activity IC50
[15] = BaF3 cell line stably transfected with EGFR L858R, read-out: L858R growth inhibitory activity IC50
[16] = BaF3 cell line stably transfected with EGFR L858R/T790M, read-out: L858R/ T790M growth inhibitory activity IC50
[17] = BaF3 cell line stably transfected with EGFR L858R/T790M/C797S, read-out: L858R/T790M/ C797S growth inhibitory activity IC50
[18] = BaF3 cell line stably transfected with EGFR Δ19Del, read-out: Δ19Del growth inhibitory activity IC50

T4 sequence (P00533 25-1210 T790M/L858R): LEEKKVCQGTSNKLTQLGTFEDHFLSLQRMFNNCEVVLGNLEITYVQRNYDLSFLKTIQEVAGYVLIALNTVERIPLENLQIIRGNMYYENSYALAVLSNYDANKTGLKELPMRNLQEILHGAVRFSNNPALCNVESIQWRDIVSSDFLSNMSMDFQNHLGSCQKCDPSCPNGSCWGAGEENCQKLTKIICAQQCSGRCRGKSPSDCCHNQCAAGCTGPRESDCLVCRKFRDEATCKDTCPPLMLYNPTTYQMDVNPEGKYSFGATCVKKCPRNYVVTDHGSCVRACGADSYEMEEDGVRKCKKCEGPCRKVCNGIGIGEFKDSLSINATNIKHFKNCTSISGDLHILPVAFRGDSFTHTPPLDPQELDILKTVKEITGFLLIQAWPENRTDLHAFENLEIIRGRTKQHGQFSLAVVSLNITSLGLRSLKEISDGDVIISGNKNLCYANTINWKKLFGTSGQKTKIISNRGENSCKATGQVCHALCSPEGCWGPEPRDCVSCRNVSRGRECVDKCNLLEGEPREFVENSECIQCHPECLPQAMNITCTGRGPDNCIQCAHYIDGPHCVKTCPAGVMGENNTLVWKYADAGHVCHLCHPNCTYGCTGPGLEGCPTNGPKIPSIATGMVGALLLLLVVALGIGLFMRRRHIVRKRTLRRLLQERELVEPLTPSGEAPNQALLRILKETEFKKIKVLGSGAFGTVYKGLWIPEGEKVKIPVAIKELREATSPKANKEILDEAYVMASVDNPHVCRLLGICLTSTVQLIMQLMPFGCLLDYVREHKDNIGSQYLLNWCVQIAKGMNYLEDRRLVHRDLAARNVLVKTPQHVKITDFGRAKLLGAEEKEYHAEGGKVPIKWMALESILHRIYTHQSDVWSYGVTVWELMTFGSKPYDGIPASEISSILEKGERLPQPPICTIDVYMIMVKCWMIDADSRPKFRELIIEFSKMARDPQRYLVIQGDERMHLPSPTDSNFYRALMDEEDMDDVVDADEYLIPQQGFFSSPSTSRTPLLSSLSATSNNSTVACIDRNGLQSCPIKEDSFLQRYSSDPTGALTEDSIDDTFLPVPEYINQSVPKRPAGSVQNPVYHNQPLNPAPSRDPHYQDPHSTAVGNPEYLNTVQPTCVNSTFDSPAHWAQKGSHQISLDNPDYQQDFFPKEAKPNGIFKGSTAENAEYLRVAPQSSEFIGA
T3 sequence (P00533 25-1210 L858R): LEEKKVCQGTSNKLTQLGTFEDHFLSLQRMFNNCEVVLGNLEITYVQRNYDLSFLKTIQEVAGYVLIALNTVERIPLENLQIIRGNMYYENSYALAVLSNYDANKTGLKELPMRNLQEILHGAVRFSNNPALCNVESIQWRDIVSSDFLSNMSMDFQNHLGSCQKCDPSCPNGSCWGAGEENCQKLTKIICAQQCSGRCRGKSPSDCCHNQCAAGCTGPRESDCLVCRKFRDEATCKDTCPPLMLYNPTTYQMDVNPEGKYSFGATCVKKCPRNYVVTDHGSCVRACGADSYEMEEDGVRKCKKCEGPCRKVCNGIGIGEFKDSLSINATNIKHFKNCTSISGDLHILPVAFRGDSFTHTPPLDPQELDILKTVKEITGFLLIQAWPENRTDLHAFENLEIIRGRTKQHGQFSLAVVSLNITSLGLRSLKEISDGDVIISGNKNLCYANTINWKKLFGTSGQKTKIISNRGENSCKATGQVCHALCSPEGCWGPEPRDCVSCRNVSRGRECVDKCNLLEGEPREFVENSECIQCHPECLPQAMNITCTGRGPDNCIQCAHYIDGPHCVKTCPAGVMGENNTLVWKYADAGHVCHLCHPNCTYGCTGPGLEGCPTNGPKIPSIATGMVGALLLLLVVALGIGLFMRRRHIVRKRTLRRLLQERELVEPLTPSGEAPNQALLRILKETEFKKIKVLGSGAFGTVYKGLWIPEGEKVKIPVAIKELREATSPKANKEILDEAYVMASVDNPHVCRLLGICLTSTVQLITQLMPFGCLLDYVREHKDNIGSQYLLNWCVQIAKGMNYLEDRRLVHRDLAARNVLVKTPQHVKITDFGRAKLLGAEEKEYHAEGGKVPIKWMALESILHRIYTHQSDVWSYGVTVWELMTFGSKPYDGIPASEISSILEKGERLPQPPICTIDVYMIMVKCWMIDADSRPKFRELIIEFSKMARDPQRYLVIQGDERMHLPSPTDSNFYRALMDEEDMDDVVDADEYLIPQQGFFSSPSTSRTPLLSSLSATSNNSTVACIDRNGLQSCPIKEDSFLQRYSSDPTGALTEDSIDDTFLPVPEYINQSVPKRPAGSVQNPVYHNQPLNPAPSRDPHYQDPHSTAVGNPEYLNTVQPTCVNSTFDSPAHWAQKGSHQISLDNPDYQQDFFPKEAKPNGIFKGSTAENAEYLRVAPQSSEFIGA
T1 sequence (P00533 with tags, fused parts or gaps DEL746-750/T790M/C797S, form open): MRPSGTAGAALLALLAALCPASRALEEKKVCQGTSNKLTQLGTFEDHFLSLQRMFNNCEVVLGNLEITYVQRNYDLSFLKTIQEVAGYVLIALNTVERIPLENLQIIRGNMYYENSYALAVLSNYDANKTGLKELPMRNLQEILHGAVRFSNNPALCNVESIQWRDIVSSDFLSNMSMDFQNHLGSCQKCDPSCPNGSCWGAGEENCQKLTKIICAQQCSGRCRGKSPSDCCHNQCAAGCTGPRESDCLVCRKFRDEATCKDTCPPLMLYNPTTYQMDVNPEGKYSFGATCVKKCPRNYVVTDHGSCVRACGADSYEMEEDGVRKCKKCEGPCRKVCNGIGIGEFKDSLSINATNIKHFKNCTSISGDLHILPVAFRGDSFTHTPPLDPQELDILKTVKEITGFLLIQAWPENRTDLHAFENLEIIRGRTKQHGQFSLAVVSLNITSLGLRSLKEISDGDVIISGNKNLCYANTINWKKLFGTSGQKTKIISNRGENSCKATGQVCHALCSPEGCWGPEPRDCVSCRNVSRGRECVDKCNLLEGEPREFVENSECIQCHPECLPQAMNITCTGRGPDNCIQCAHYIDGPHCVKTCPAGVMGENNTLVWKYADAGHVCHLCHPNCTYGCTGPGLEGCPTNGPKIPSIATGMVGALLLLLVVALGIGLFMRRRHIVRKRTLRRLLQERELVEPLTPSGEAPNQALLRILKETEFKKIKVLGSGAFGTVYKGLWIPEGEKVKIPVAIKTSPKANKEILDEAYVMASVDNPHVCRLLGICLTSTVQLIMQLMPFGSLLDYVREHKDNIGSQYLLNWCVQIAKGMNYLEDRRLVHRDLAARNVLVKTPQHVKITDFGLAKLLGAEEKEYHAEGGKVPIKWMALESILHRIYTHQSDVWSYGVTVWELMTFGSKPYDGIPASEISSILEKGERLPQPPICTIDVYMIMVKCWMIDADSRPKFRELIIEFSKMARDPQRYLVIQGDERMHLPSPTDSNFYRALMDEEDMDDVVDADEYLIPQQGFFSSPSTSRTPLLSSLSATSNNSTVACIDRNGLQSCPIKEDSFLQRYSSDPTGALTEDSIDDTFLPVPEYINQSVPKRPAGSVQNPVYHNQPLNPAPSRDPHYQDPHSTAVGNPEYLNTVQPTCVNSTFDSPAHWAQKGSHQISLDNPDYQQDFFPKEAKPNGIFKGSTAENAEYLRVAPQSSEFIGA
T6 sequence (P00533 with tags, fused parts or gaps DEL746-750): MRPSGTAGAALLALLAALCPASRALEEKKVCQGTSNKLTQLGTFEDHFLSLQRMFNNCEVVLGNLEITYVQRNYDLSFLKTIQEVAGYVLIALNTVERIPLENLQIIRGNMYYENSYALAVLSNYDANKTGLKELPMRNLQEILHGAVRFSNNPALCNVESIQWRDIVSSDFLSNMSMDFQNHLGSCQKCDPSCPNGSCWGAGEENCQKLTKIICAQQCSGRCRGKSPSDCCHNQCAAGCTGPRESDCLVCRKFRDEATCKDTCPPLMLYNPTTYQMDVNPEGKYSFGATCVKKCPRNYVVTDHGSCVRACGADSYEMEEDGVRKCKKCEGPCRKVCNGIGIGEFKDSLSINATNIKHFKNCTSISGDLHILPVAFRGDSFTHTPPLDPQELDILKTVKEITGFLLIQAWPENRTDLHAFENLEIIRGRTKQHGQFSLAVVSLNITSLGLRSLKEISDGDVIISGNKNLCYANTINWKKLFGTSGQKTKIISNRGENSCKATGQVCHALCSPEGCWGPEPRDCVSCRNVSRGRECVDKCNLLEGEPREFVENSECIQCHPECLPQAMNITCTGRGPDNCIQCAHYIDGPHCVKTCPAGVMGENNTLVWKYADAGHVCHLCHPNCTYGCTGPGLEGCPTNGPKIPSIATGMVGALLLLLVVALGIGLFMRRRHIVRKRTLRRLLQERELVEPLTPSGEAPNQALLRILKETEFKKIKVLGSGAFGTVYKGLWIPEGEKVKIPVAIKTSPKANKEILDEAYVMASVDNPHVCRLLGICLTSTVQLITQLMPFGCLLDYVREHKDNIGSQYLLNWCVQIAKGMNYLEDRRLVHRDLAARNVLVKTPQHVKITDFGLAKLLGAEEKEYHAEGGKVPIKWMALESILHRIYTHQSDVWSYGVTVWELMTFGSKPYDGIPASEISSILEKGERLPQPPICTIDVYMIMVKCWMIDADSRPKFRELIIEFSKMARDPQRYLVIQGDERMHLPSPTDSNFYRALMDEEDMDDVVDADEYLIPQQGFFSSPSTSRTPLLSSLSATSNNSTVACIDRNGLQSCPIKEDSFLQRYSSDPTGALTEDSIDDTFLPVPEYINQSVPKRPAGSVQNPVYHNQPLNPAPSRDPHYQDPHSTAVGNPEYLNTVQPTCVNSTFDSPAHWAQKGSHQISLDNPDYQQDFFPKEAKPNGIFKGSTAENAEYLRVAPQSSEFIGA

CCc1cc(Nc2ncc(Br)c(Nc3ccc4nccnc4c3N(CC)S(C)(=O)=O)n2)c(OC)cc1N1CCN(C)CC1 [Compound I-301]
IC50 [1, 7]: ≤ 50 nM
IC50 [2, 8]: ≤ 50 nM
IC50 [3, 9]: ≤ 50 nM
IC50 [4, 10]: ≤ 50 nM
IC50 [5, 11]: ≤ 50 nM
IC50 [6, 12]: 50 to 500 nM

CCN(c1c(Nc2nc(Nc3cc(C)c(N4CCC(N(C)C)C4)cc3OC)ncc2Br)ccc2nccnc12)S(C)(=O)=O (stereo not drawn) [Compound I-302]
IC50 [1, 7]: 50 to 500 nM
IC50 [2, 8]: ≤ 50 nM
IC50 [3, 9]: 50 to 500 nM
IC50 [4, 10]: ≤ 50 nM
IC50 [5, 11]: ≤ 50 nM
IC50 [6, 12]: 50 to 500 nM

COc1cc(N2CCC(N3CCN(C)CC3)CC2)ccc1Nc1ncc(Cl)c(Nc2ccc3nccnc3c2N(C2CC2)S(C)(=O)=O)n1 [Compound I-303]
IC50 [1, 13]: ≤ 50 nM
IC50 [2, 14]: 50 to 500 nM
IC50 [3, 15]: 50 to 500 nM
IC50 [4, 16]: 50 to 500 nM
IC50 [5, 17]: ≤ 50 nM
IC50 [6, 18]: 50 to 500 nM

C=Cc1cc(Nc2ncc(Cl)c(Nc3ccc4nccnc4c3N(C3CC3)S(C)(=O)=O)n2)c(OC(F)(F)F)cc1N1CCC(N2CCN(C)CC2)CC1 [Compound I-304]
IC50 [1, 13]: 50 to 500 nM
IC50 [2, 14]: ≤ 50 nM
IC50 [3, 15]: 50 to 500 nM
IC50 [4, 16]: ≤ 50 nM
IC50 [5, 17]: 50 to 500 nM
IC50 [6, 18]: 50 to 500 nM

COc1nc(N2CCC(N3CCN(C)CC3)CC2)ccc1Nc1ncc(Br)c(Nc2ccc3nccnc3c2N(C2CC2)S(C)(=O)=O)n1 [Compound I-305]
IC50 [1, 13]: 50 to 500 nM
IC50 [2, 14]: 50 to 500 nM
IC50 [3, 15]: 50 to 500 nM
IC50 [4, 16]: ≤ 50 nM
IC50 [5, 17]: 50 to 500 nM
IC50 [6, 18]: 50 to 500 nM

COc1nc(N2CCC(N3CCN(C)CC3)CC2)c(C)cc1Nc1ncc(Br)c(Nc2ccc3nccnc3c2N(C2CC2)S(C)(=O)=O)n1 [Compound I-306]
IC50 [1, 13]: 500 to 2500 nM
IC50 [2, 14]: 50 to 500 nM
IC50 [3, 15]: 50 to 500 nM
IC50 [4, 16]: 50 to 500 nM
IC50 [5, 17]: 500 to 2500 nM
IC50 [6, 18]: 500 to 2500 nM

C=Cc1cc(Nc2ncc(Br)c(Nc3ccc4nccnc4c3N(C3CC3)S(C)(=O)=O)n2)c(OC(F)(F)F)cc1N1CCC(N2CCN(C)CC2)CC1 [Compound I-307]
IC50 [1, 13]: 50 to 500 nM
IC50 [2, 14]: 50 to 500 nM
IC50 [3, 15]: 500 to 2500 nM
IC50 [4, 16]: 50 to 500 nM
IC50 [5, 17]: 50 to 500 nM
IC50 [6, 18]: 500 to 2500 nM

COc1cc(N2CCC(N3CCN(C)CC3)CC2)c(CC2CC2)cc1Nc1ncc(Br)c(Nc2ccc3nccnc3c2N(C2CC2)S(C)(=O)=O)n1 [Compound I-308]
IC50 [1, 13]: ≤ 50 nM
IC50 [2, 14]: ≤ 50 nM
IC50 [3, 15]: 50 to 500 nM
IC50 [4, 16]: ≤ 50 nM
IC50 [5, 17]: 50 to 500 nM
IC50 [6, 18]: 50 to 500 nM

COc1cc(N2CCN(C)CC2)c(C)cc1Nc1ncc(Br)c(Nc2ccc3nccnc3c2N(C2CC2)S(C)(=O)=O)n1 [Compound I-309]
IC50 [1, 13]: ≤ 50 nM
IC50 [2, 14]: ≤ 50 nM
IC50 [3, 15]: ≤ 50 nM
IC50 [4, 16]: ≤ 50 nM
IC50 [5, 17]: ≤ 50 nM
IC50 [6, 18]: 50 to 500 nM

CCc1cc(Nc2ncc(Br)c(Nc3ccc4nccnc4c3N(C3CC3)S(C)(=O)=O)n2)c(OC)cc1N1CCN(C)CC1 [Compound I-310]
IC50 [1, 13]: ≤ 50 nM
IC50 [2, 14]: ≤ 50 nM
IC50 [3, 15]: ≤ 50 nM
IC50 [4, 16]: ≤ 50 nM
IC50 [5, 17]: ≤ 50 nM
IC50 [6, 18]: 50 to 500 nM

COc1cc(N2CCC(N(C)C)CC2)c(C)cc1Nc1ncc(Br)c(Nc2ccc3nccnc3c2N(C2CC2)S(C)(=O)=O)n1 [Compound I-311]
IC50 [1, 13]: ≤ 50 nM
IC50 [2, 14]: ≤ 50 nM
IC50 [3, 15]: 50 to 500 nM
IC50 [4, 16]: ≤ 50 nM
IC50 [5, 17]: ≤ 50 nM
IC50 [6, 18]: 50 to 500 nM

COc1cc(N2CCC(N(C)C)C2)c(C)cc1Nc1ncc(Br)c(Nc2ccc3nccnc3c2N(C2CC2)S(C)(=O)=O)n1 (stereo not drawn) [Compound I-312]
IC50 [1, 13]: ≤ 50 nM
IC50 [2, 14]: ≤ 50 nM
IC50 [3, 15]: 50 to 500 nM
IC50 [4, 16]: ≤ 50 nM
IC50 [5, 17]: ≤ 50 nM
IC50 [6, 18]: 50 to 500 nM

COc1cc(N2CCC(N3CCN(C)CC3)CC2)ccc1Nc1ncc(C)c(Nc2ccc3nccnc3c2N(C)S(C)(=O)=O)n1 [Compound I-313]
IC50 [1, 13]: ≤ 50 nM
IC50 [2, 14]: 50 to 500 nM
IC50 [3, 15]: 50 to 500 nM
IC50 [4, 16]: 50 to 500 nM
IC50 [5, 17]: 50 to 500 nM
IC50 [6, 18]: 50 to 500 nM

CCc1cc(Nc2ncc(C)c(Nc3ccc4nccnc4c3N(C)S(C)(=O)=O)n2)c(OC(F)(F)F)cc1N1CCC(N2CCN(C)CC2)CC1 [Compound I-314]
IC50 [1, 13]: ≤ 50 nM
IC50 [2, 14]: ≤ 50 nM
IC50 [3, 15]: 50 to 500 nM
IC50 [4, 16]: ≤ 50 nM
IC50 [5, 17]: ≤ 50 nM
IC50 [6, 18]: 50 to 500 nM

CCc1cc(Nc2ncc(C)c(Nc3ccc4nccnc4c3N(C)S(C)(=O)=O)n2)c(OC)cc1N1CCN(C)CC1 [Compound I-315]
IC50 [1, 13]: ≤ 50 nM
IC50 [2, 14]: ≤ 50 nM
IC50 [3, 15]: ≤ 50 nM
IC50 [4, 16]: ≤ 50 nM
IC50 [5, 17]: ≤ 50 nM
IC50 [6, 18]: ≤ 50 nM

CCc1cnc(Nc2ccc(N3CCC(N4CCN(C)CC4)CC3)cc2OC)nc1Nc1ccc2nccnc2c1N(C)S(C)(=O)=O [Compound I-316]
IC50 [1, 13]: ≤ 50 nM
IC50 [2, 14]: 50 to 500 nM
IC50 [3, 15]: 50 to 500 nM
IC50 [4, 16]: 50 to 500 nM
IC50 [5, 17]: 50 to 500 nM
IC50 [6, 18]: 50 to 500 nM

CCc1cnc(Nc2cc(C)c(N3CCC(N4CCN(C)CC4)CC3)cc2OC)nc1Nc1ccc2nccnc2c1N(C)S(C)(=O)=O [Compound I-317]
IC50 [1, 13]: ≤ 50 nM
IC50 [2, 14]: ≤ 50 nM
IC50 [3, 15]: ≤ 50 nM
IC50 [4, 16]: ≤ 50 nM
IC50 [5, 17]: ≤ 50 nM
IC50 [6, 18]: ≤ 50 nM

CCc1cc(Nc2ncc(CC)c(Nc3ccc4nccnc4c3N(C)S(C)(=O)=O)n2)c(OC)cc1N1CCC(N2CCN(C)CC2)CC1 [Compound I-318]
IC50 [1, 13]: ≤ 50 nM
IC50 [2, 14]: ≤ 50 nM
IC50 [3, 15]: ≤ 50 nM
IC50 [4, 16]: ≤ 50 nM
IC50 [5, 17]: ≤ 50 nM
IC50 [6, 18]: ≤ 50 nM

CCc1cc(Nc2ncc(CC)c(Nc3ccc4nccnc4c3N(C)S(C)(=O)=O)n2)ccc1N1CCC(N2CCN(C)CC2)CC1 [Compound I-319]
IC50 [1, 13]: ≤ 50 nM
IC50 [2, 14]: ≤ 50 nM
IC50 [3, 15]: ≤ 50 nM
IC50 [4, 16]: ≤ 50 nM
IC50 [5, 17]: ≤ 50 nM
IC50 [6, 18]: ≤ 50 nM

CCc1cnc(Nc2cc(CC)c(N3CCC(N4CCN(C)CC4)CC3)nc2OC)nc1Nc1ccc2nccnc2c1N(C)S(C)(=O)=O [Compound I-320]
IC50 [1, 13]: ≤ 50 nM
IC50 [2, 14]: ≤ 50 nM
IC50 [3, 15]: ≤ 50 nM
IC50 [4, 16]: ≤ 50 nM
IC50 [5, 17]: ≤ 50 nM
IC50 [6, 18]: ≤ 50 nM

CCc1cc(Nc2ncc(CC)c(Nc3ccc4nccnc4c3N(C)S(C)(=O)=O)n2)c(OC(F)(F)F)cc1N1CCC(N2CCN(C)CC2)CC1 [Compound I-321]
IC50 [1, 13]: ≤ 50 nM
IC50 [2, 14]: ≤ 50 nM
IC50 [3, 15]: 50 to 500 nM
IC50 [4, 16]: 50 to 500 nM
IC50 [5, 17]: 50 to 500 nM
IC50 [6, 18]: 50 to 500 nM
